Assays:
A375 malignant melanoma = experiment: Cell Proliferation Inhibition Assay, A375 (14C-thymidine); assay type: cell-based; settings: Homo sapiens, A-375
From the text: (§1) Cell Proliferation Inhibition Assay
(§2) The ability of a test compound to inhibit unregulated cell proliferation may be determined by measuring incorporation of ^14C-labelled thymidine into newly synthesized DNA within cell lines derived from carcinomas originating from several tissues. Accordingly, the effect of a test compound on proliferation of cells with a variety of phenotypes may be determined.
(§3) Carcinoma cell lines used include the HeLa cervical adenocarcinoma from the American Type Culture Collection (ATCC Cat. #CCL2), A375 malignant melanoma (ATCC Cat. #CRL-1619), HCT-116 colon carcinoma (ATCC Cat. #CCL-247), SKBR3 breast carcinoma (ATCC Cat. #HTB-30) and BT474 breast carcinoma (ATCC Cat. #HTB-20).
(§4) The carcinoma cells were trypsinized and counted. The cells (3000-8000 count) were added to each well of a 96-well CytoStar tissue culture treated scintillating microplate (Amersham #RPNQ0160) in complete medium (100 μL) and the plate was then incubated in complete medium for 24 hrs at 37° C. in an inert atmosphere containing 5% CO2.
(§5) Test compound (1 μL) in 100% DMSO was added to the plate test-wells with DMSO only added to control-wells. The plate was incubated in complete medium for a second 24 hr period at 37° C. in an atmosphere containing 5% CO2.
(§6) An aliquot of a solution of Methyl ^14C-thymidine (56 mC/mmol) (NEN #NEC568 or AMersham #CFA532) and complete medium (20 uL to provide 0.2 μCl/well) was then added to each well and the plate was incubated for a third 24 hr period at 37° C. in an atmosphere containing 5% CO2.
(§7) The plate contents were then discarded, the plate washed twice with PBS (200 μL) and then PBS (200 μL) was added to each well. The plate was sealed and the degree of methyl ^14C-thymidine incorporation was quantified on a Packard Top Count.
(§8) Cell proliferation of the Hela cell line was measured using the ATP-Lite method as described in the ATP Lite Kit (Perkin-Elmer Kit Number 6106941) or the C^14 method as described above. Cell proliferation of the other cell lines was measured using the C^14 method.

c-Src kinase (human) = target: T1, c-Src kinase (human) (Homo sapiens, UniProt P12931); experiment: c-Src Kinase Assay; assay type: biochemical; settings: test concentration of 2 μM; multiple values are separate assay results
T1 construct: purchased Upstate Biotechnology, Lake Placid, N.Y
T1 sequence (P12931 whole entry): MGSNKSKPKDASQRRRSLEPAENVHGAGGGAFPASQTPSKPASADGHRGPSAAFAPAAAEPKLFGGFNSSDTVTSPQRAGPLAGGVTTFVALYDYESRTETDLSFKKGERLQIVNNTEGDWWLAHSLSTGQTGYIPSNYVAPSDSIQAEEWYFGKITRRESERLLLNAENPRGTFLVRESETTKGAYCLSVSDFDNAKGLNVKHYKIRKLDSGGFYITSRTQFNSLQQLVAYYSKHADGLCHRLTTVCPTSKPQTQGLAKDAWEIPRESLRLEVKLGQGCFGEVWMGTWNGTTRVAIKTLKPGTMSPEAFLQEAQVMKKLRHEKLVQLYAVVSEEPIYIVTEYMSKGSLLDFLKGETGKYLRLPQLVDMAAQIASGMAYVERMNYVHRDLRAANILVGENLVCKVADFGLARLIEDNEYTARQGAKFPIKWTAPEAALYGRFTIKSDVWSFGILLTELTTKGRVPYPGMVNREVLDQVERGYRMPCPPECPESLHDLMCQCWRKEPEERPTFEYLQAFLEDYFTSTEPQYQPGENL
In short: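 Inhibition was read as 33P incorporation, counted on P30 filtermats, after a 40 min, 30° C reaction. Human c-Src acted on 100 μM Cdc2 peptide with 5 μM ATP (final), pH 7.0 MOPS/MgCl2. Values are percent inhibition at 2 μM compound, or IC50 where determined.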

HER-2 = target: T2, HER-2 (Homo sapiens, UniProt P04626); experiment: HER-2 Kinase Assay; assay type: biochemical; settings: value in parentheses
T2 construct: His6 with thrombin site (N); purchased Proqinase (Freiburg, Germany)
T2 sequence (P04626 679-1255): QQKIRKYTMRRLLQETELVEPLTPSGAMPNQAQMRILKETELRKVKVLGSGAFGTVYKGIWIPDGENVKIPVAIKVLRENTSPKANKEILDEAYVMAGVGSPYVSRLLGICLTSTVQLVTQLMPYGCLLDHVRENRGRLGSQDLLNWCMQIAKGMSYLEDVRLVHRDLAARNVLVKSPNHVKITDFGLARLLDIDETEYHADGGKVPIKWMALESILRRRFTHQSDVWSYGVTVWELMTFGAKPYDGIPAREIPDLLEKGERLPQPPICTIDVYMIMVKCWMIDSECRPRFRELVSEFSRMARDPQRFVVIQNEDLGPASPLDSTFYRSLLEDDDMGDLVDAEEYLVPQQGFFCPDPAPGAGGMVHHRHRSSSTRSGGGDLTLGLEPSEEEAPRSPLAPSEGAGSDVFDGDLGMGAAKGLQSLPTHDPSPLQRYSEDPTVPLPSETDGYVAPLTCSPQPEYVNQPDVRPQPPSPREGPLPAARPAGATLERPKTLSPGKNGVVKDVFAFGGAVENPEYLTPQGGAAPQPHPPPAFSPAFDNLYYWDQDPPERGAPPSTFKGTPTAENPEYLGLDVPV
In short: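 Read-out was scintillation counting of 33P incorporated into biotinylated polyGluTyr captured on streptavidin plates. Reactions ran 1 h at 30 °C with GST-fused HER-2 residues 679–1255, 1 μM ATP, Mn2+ and Mg2+ at pH 7.5; data given as percent inhibition at 1 μM, with IC50 where determined.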

[1] = system: HeLa cervical adenocarcinoma; experiment: Cell Proliferation Inhibition Assay, Hela (C14 method); assay type: cell-based; settings: Homo sapiens, Table 7
From the text: as §1, §2, §3, §4, §5, §6, §7, §8

Compound | IC50 (A375 malignant melanoma) [µM] | inhibition at 2 µM (c-Src kinase (human)) [%] | IC50 (HER-2) [µM] | IC50 [1] [µM]
Cc1ccc(N2C(=O)Nc3c(C(=O)Nc4ccc(CN5CCOCC5)cc4)sc4ncnc2c34)cc1Br [Cpd 108, 5-(3-bromo-4-methyl-phenyl)-4-oxo-4,5-dihydro-3H-1-thia-3,5,6,8-tetraaza-acenaphthylene-2-carboxylic acid (4-morpholin-4-ylmethyl-phenyl)-amide] | 100 | 19 | 0.148 | ≥ 100
Cc1ccc(Br)cc1N1C(=O)Nc2c(C(=O)Nc3ccc(CN4CCOCC4)cc3)sc3ncnc1c23 [Cpd 109, 5-(5-bromo-2-methyl-phenyl)-4-oxo-4,5-dihydro-3H-1-thia-3,5,6,8-tetraaza-acenaphthylene-2-carboxylic acid (4-morpholin-4-ylmethyl-phenyl)-amide] | 10 | 31 | 0.684 | ≥ 10
O=C(Nc1ccc(CN2CCOCC2)cc1)c1sc2ncnc3c2c1NC(=O)N3c1ccc(Oc2ccc(F)cc2)cc1 [Cpd 110, 5-[4-(4-fluoro-phenoxy)-phenyl]-4-oxo-4,5-dihydro-3H-1-thia-3,5,6,8-tetraaza-acenaphthylene-2-carboxylic acid (4-morpholin-4-ylmethyl-phenyl)-amide] | 100 | 16 | 0.161 | 15.5

Other lines, results leading:

IC50 (A375 malignant melanoma) [µM] | inhibition at 2 µM (c-Src kinase (human)) [%] | IC50 (HER-2) [µM] | IC50 [1] [µM] | Compound
10 | -7 | 1.7 | ≥ 10 | Cc1ccc(N2C(=O)Nc3c(C(=O)NC4CCN(C)CC4)sc4ncnc2c34)cc1Br [Cpd 116, 5-(3-bromo-4-methyl-phenyl)-4-oxo-4,5-dihydro-3H-1-thia-3,5,6,8-tetraaza-acenaphthylene-2-carboxylic acid (1-methyl-piperidin-4-yl)-amide]
100 | 25 | 13 | ≥ 100 | Cc1ccc(Br)cc1N1C(=O)Nc2c(C(=O)NC3CCN(C)CC3)sc3ncnc1c23 [Cpd 117, 5-(5-bromo-2-methyl-phenyl)-4-oxo-4,5-dihydro-3H-1-thia-3,5,6,8-tetraaza-acenaphthylene-2-carboxylic acid (1-methyl-piperidin-4-yl)-amide]
10 | 15 | ~100 | ≥ 10 | CN1CCC(NC(=O)c2sc3ncnc4c3c2NC(=O)N4c2ccc(Oc3ccc(F)cc3)cc2)CC1 [Cpd 118, 5-[4-(4-fluoro-phenoxy)-phenyl]-4-oxo-4,5-dihydro-3H-1-thia-3,5,6,8-tetraaza-acenaphthylene-2-carboxylic acid (1-methyl-piperidin-4-yl)-amide]

Source: patent US7579356B2, “Thia-tetraazaacenaphthylene kinase inhibitors” (Janssen Pharmaceutica NV, priority 2005, dated 2009)
